According to article PMC11864979, “First-in-class ultralong-target-residence-time p38α inhibitors as a mitosis-targeted therapy for colorectal cancer” (Nature Cancer, 2025):
Where “and” joins values, the source holds several entries; their conditions need not be identical. Identical values can stand only once.

How the values were obtained:
[1] = tested on: subcutaneous KAP CRCs; experiment: treatment of subcutaneous KAP tumors in wild-type mice; assay type: in vivo, mouse; conditions: Fig. 1j, individual tumors
Experimental: Subcutaneous injection, splenic seeding or cecum injection of organoids was performed in 8–10-week-old C57BL/6 N/Crl, Rag2^−/− (B6.Cg-Rag2^tm1.1Cgn/J), or CB17 Scid beige (CB17.Cg-Prkdc^scidLyst^bg-J/Crl) mice, obtained from Charles River. The organoids were dissociated into single cells, washed with PBS and injected in a 1:1 mixture of PBS and Matrigel. For murine organoids, 1 × 10^5 cells were injected into the left and right flanks or the spleen capsule and 2 × 10^6 cells were injected into the cecum wall. For human organoids, 4 × 10^5 cells were injected into the flanks of CB17 Scid beige mice. For splenic seeding and cecum injection, mice were anaesthetized using ketamine (100 mg kg^−1, intraperitoneally) and xylazin (10 mg/kg, intraperitoneally) in NaCl and a small laparotomy below the thorax was performed.
No mice were excluded during treatment studies.

[2] = tested on: HCT-15; experiment: cell viability in human CRC cell line HCT-15; assay type: cell-based; conditions: for HCT-15 Cell viability (%): 4 d
Experimental: To generate KAP^2D cells, KAP organoids were isolated from Matrigel, fragmented by mechanical dissociation and plated without any extracellular matrix on common cell culture dishes. Phoenix-Eco packaging cells (CRL-3214), HCT-15 (CCL-225), HCT 116 (CCL-247), COLO 205 (CCL-222), LS 174T (CL-188), RKO (CRL-2577) and HT-29 (HTB-38) were obtained from the American Type Culture Collection. The cells were cultured at 37 °C and 7% CO2 with RPMI (KAP^2D cells) or DMEM (other cell lines), supplemented with 10% FBS and penicillin–streptomycin. KAP^2D cells were authenticated using PCR (Kras locus and Trp53 locus). Phoenix-Eco packaging cells and HCT-15, HCT 116, COLO 205, LS 174T, RKO and HT-29 cells were authenticated by the provider using short tandem repeat profiling. No commonly misidentified cell lines were used. Mycoplasma contamination was excluded by a PCR-based analysis.
(§1) For in vitro treatment studies, organoids were mechanically dissociated and digested using TrypLE supplemented with 100 µg ml^−1 DNaseI and 10.5 µM Y-27632 dihydrochloride (Invitrogen) at 37 °C. A total of 1,000–2,000 single cells were plated per well in white 96-well plates (Greiner) in culture medium containing 10% GFR Matrigel or Cultrex BME. The treatment with doxycycline (5 µg ml^−1), pharmacological inhibitors or corresponding volumes of DMSO was started 24 h after plating. Doxycycline was obtained from Sigma-Aldrich. […] Cell viability was measured by means of CellTiter-Glo 3D or CellTiter-Glo 2.0 reagent (Promega) according to the manufacturers’ instructions and the Infinite M Plex reader (Tecan, i-control version 3.9.1 software). Results were normalized to vehicle (DMSO) or to shNC. For cell-doubling assays, the cell number was quantified at the corresponding time points using Guava EasyCyte flow cytometer (Luminex, CytoSoft v5.2 software).

[3] = tested on: PDO14; experiment: cell viability in patient-derived CRC organoids PDO14; assay type: cell-based, human
Experimental: as §1

[4] = target: p38α (Homo sapiens, UniProt Q16539); experiment: target residence time (TRT) fluorescence polarization jump-dilution assay; assay type: binding
p38α, sequence (Q16539 whole entry): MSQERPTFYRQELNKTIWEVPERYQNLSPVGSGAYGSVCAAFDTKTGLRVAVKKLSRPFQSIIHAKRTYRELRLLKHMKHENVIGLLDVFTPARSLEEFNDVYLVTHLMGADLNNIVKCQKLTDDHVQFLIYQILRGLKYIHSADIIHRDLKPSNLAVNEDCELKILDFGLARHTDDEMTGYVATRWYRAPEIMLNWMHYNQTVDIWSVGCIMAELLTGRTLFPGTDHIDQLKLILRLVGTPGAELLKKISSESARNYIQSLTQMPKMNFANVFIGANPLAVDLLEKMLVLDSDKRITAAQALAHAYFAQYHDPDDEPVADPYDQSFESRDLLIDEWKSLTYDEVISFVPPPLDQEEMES
Experimental: TRTs were determined using a fluorescence polarization assay kit (Transcreener ADP, BellBrook Labs)[29]. […] The formed complex was ‘jump-diluted’ 1:100 (0.5 µl in 49.5 µl) in a 96-half-area-well plate with ATF2 (82 μM), ATP (40 μM) and ADP as the kinase assay detection reagents. The plate was measured every 3 min for 4 h. Fluorescence polarization was detected using the plate reader VictorNivo (PerkinElmer). The data were analyzed using the integrated rate equation in GraphPad Prism version 7.03 software. The residence time was calculated from the reciprocal value of koff.

[5] = tested on: LS 174T; experiment: cell viability in human CRC cell line LS 174T; assay type: cell-based; conditions: for LS 174T Cell viability (%): 4 d
Experimental: The cells were cultured at 37 °C and 7% CO2 with RPMI (KAP^2D cells) or DMEM (other cell lines), supplemented with 10% FBS and penicillin–streptomycin. […] No commonly misidentified cell lines were used. Mycoplasma contamination was excluded by a PCR-based analysis.

## O=C1c2ccc(Nc3ccc(F)cc3F)cc2CCc2ccc(OC[C@H](O)CO)cc21 [SKL, skepinone-L, reference compound]
[1]; day 0 of treatment
  Tumor volume (mm³): 32.0 mm³ and 62.5 mm³ (2×) and 64.0 mm³ and 75.0 mm³ and 31.5 mm³ and 56.0 mm³ (3×) and 40.0 mm³
[1]; day 2 of treatment
  Tumor volume (mm³): 56.0 mm³ and 100.0 mm³ and 75.0 mm³ and 108.0 mm³ and 36.0 mm³ and 62.5 mm³ and 64.0 mm³ (3×) and 48.0 mm³
[1]; day 4 of treatment
  Tumor volume (mm³): 100.0 mm³ and 108.0 mm³ and 87.5 mm³ and 126.0 mm³ and 48.0 mm³ and 75.0 mm³ (4×) and 56.0 mm³
[1]; day 6 of treatment
  Tumor volume (mm³): 100.0 mm³ (2×) and 112.5 mm³ and 171.5 mm³ and 144.0 mm³ and 56.0 mm³ and 75.0 mm³ (2×) and 108.0 mm³ and 62.5 mm³
[1]; day 8 of treatment
  Tumor volume (mm³): 144.0 mm³ and 180.0 mm³ (2×) and 162.0 mm³ and 72.0 mm³ and 108.0 mm³ and 126.0 mm³ and 87.5 mm³ and 112.5 mm³ (2×)
[1]; day 10 of treatment
  Tumor volume (mm³): 180.0 mm³ (2×) and 245.0 mm³ and 171.5 mm³ and 112.5 mm³ and 126.0 mm³ (3×) and 144.0 mm³ and 108.0 mm³
[1]; day 12 of treatment
  Tumor volume (mm³): 245.0 mm³ and 320.0 mm³ and 196.0 mm³ (3×) and 125.0 mm³ and 171.5 mm³ (2×) and 162.0 mm³ and 144.0 mm³
[2]; 0.0137 µM
  HCT-15 Cell viability (%): 94.63% and 95.15% and 88.92% and 87.12% and 85.20%
[2]; 0.0412 µM
  HCT-15 Cell viability (%): 84.33% and 79.97% and 95.82% and 93.07% and 94.19%
[2]; 0.1235 µM
  HCT-15 Cell viability (%): 87.23% and 83.60% and 94.86% and 91.54% and 91.68%
[2]; 0.3704 µM
  HCT-15 Cell viability (%): 89.64% and 87.65% and 88.79% and 84.50% and 86.12%
[2]; 1.1111 µM
  HCT-15 Cell viability (%): 86.80% and 87.17% and 87.53% and 83.96% and 84.00%
[2]; 3.3333 µM
  HCT-15 Cell viability (%): 78.50% and 80.56% and 79.62% and 74.15% and 75.97%
[2]; 10.0000 µM
  HCT-15 Cell viability (%): 48.74% and 48.84% and 48.80% and 46.08% and 47.66%
[2]; Homo sapiens, HCT-15, 96 h, read-out: HCT-15 Cell viability (%), 0.0137 µM, 4 d
  viability at 0.0137 µM: 96.7%
[2]; Homo sapiens, HCT-15, 96 h, read-out: HCT-15 Cell viability (%), 0.0412 µM, 4 d
  viability at 0.0412 µM: 83.9%
[2]; Homo sapiens, HCT-15, 96 h, read-out: HCT-15 Cell viability (%), 0.1235 µM, 4 d
  viability at 0.1235 µM: 87.5%
[2]; Homo sapiens, HCT-15, 96 h, read-out: HCT-15 Cell viability (%), 0.3704 µM, 4 d
  viability at 0.3704 µM: 93.1%
[2]; Homo sapiens, HCT-15, 96 h, read-out: HCT-15 Cell viability (%), 1.1111 µM, 4 d
  viability at 1.1111 µM: 93.5%
[2]; Homo sapiens, HCT-15, 96 h, read-out: HCT-15 Cell viability (%), 3.3333 µM, 4 d
  viability at 3.3333 µM: 76.4%
[2]; Homo sapiens, HCT-15, 96 h, read-out: HCT-15 Cell viability (%), 10.0000 µM, 4 d
  viability at 10 µM: 49.5%
[3]; Homo sapiens, 96 h, read-out: Cell viability (%), PDO14, 0.5 µM, 4 d
  viability at 0.5 µM: 104%
[3]; Homo sapiens, 96 h, read-out: Cell viability (%), PDO14, 1 µM, 4 days
  viability at 1 µM: 100%
[3]; PDO14, 0.5 µM, 4 d, 0.5 µM
  Cell viability (%): 101.08% and 101.64%
[3]; PDO14, 1 µM, 4 days, 1 µM
  Cell viability (%): 109.63% and 109.64%
[4]; Fig. 2e, replicates
  TRT: 88.3 s and 94.8 s and 81.2 s
[4]; reciprocal of koff
  TRT: 88 s
[5]; 0.0137 µM
  LS 174T Cell viability (%): 99.40% and 93.05% and 101.28% and 92.22%
[5]; 0.0412 µM
  LS 174T Cell viability (%): 92.09% and 86.77% and 91.37% and 88.68% and 85.53%
[5]; 0.1235 µM
  LS 174T Cell viability (%): 82.00% and 78.88% and 87.71% and 84.96%
[5]; 0.3704 µM
  LS 174T Cell viability (%): 80.28% and 77.65% and 86.62% and 87.42% and 86.17%
[5]; 1.1111 µM
  LS 174T Cell viability (%): 91.92% and 90.66% and 93.51% and 91.38% and 95.21%
[5]; 3.3333 µM
  LS 174T Cell viability (%): 99.97% and 97.60% and 100.77% and 96.22% and 98.37%
[5]; 10.0000 µM
  LS 174T Cell viability (%): 102.64% and 93.49% and 96.83% and 90.78% and 93.45%
[5]; Homo sapiens, LS174T, 96 h, read-out: LS 174T Cell viability (%), 0.0137 µM, 4 d
  viability at 0.0137 µM: 100%
[5]; Homo sapiens, LS174T, 96 h, read-out: LS 174T Cell viability (%), 0.0412 µM, 4 d
  viability at 0.0412 µM: 94.4%
[5]; Homo sapiens, LS174T, 96 h, read-out: LS 174T Cell viability (%), 0.1235 µM, 4 d
  viability at 0.1235 µM: 92.9%
[5]; Homo sapiens, LS174T, 96 h, read-out: LS 174T Cell viability (%), 0.3704 µM, 4 d
  viability at 0.3704 µM: 89%
